Columns and labels:
Assay in all cases: relative viability (nuclei count vs DMSO), 5 days (fraction); higher = more cells survive
[1] = tested on: COR-L23
How it was run: (§1)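 Lung cancer cell lines were pin-tool dosed in 1536-well plates on the day after seeding, with either a lone drug or a fixed anchor-drug dose plus five library-drug doses (not always all listed) in √10 steps. Nuclei were counted on 4× images after 5 days. Relative viability is the ratio of treated-well to vehicle-well nuclei counts, with each value a median of duplicate plates.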

[2] = tested on: 201T
How it was run: as §1

[3] = tested on: NCI-H23
How it was run: as §1

[4] = tested on: HARA
How it was run: as §1

[5] = tested on: NCI-H1792
How it was run: as §1

[6] = tested on: HCC-15
How it was run: as §1

[7] = tested on: NCI-H596
How it was run: as §1

[8] = tested on: NCI-H650
How it was run: as §1

[9] = tested on: HCC-44
How it was run: as §1

[10] = tested on: SK-MES-1
How it was run: as §1

[11] = tested on: A-427
How it was run: as §1

[12] = tested on: EKVX
How it was run: as §1

[13] = tested on: NCI-H1437
How it was run: as §1

[14] = tested on: NCI-H441
How it was run: as §1

[15] = tested on: NCI-H838
How it was run: as §1

[16] = tested on: NCI-H1975
How it was run: as §1

[17] = tested on: NCI-H358
How it was run: as §1

[18] = tested on: BEN
How it was run: as §1

[19] = tested on: HCC-827
How it was run: as §1

Nc1ccn([C@@H]2O[C@H](CO)[C@@H](O)[C@@H]2O)c(=O)n1 [Cytarabine] + Cc1nc(NC(=O)N2CCC[C@H]2C(N)=O)sc1-c1ccnc(C(C)(C)C(F)(F)F)c1 [Alpelisib] (partner 2 µM)
relative viability ([1]; first compound 0.005 µM): 0.63 | relative viability ([1]; first compound 0.01581 µM): 0.472 | relative viability ([1]; first compound 0.05 µM): 0.458 | relative viability ([1]; first compound 0.1581 µM): 0.176 | relative viability ([1]; first compound 0.5 µM): 0.104 | relative viability ([2]; first compound 0.005 µM): 0.999 | relative viability ([2]; first compound 0.01581 µM): 0.983 | relative viability ([2]; first compound 0.05 µM): 1.02 | relative viability ([2]; first compound 0.1581 µM): 0.887 | relative viability ([2]; first compound 0.5 µM): 0.872 | relative viability ([3]; first compound 0.005 µM): 0.575 | relative viability ([3]; first compound 0.01581 µM): 0.547 | relative viability ([3]; first compound 0.05 µM): 0.373 | relative viability ([3]; first compound 0.1581 µM): 0.195 | relative viability ([3]; first compound 0.5 µM): 0.127 | relative viability ([4]; first compound 0.005 µM): 0.598 | relative viability ([4]; first compound 0.01581 µM): 0.376 | relative viability ([4]; first compound 0.05 µM): 0.416 | relative viability ([4]; first compound 0.1581 µM): 0.167 | relative viability ([4]; first compound 0.5 µM): 0.143 | relative viability ([5]; first compound 0.005 µM): 0.553 | relative viability ([5]; first compound 0.01581 µM): 0.644 | relative viability ([5]; first compound 0.05 µM): 0.659 | relative viability ([5]; first compound 0.1581 µM): 0.387 | relative viability ([5]; first compound 0.5 µM): 0.343 | relative viability ([6]; first compound 0.005 µM): 0.832 | relative viability ([6]; first compound 0.01581 µM): 0.878 | relative viability ([6]; first compound 0.05 µM): 0.844 | relative viability ([6]; first compound 0.1581 µM): 0.745 | relative viability ([6]; first compound 0.5 µM): 0.546 | relative viability ([7]; first compound 0.005 µM): 0.5 | relative viability ([7]; first compound 0.01581 µM): 0.567 | relative viability ([7]; first compound 0.05 µM): 0.433 | relative viability ([7]; first compound 0.1581 µM): 0.418 | relative viability ([7]; first compound 0.5 µM): 0.315 | relative viability ([8]; first compound 0.005 µM): 0.732 | relative viability ([8]; first compound 0.01581 µM): 0.81 | relative viability ([8]; first compound 0.05 µM): 0.468 | relative viability ([8]; first compound 0.1581 µM): 0.218 | relative viability ([8]; first compound 0.5 µM): 0.224 | relative viability ([9]; first compound 0.005 µM): 0.806 | relative viability ([9]; first compound 0.01581 µM): 0.726 | relative viability ([9]; first compound 0.05 µM): 0.586 | relative viability ([9]; first compound 0.1581 µM): 0.429 | relative viability ([9]; first compound 0.5 µM): 0.517 | relative viability ([10]; first compound 0.005 µM): 0.702 | relative viability ([10]; first compound 0.01581 µM): 0.688 | relative viability ([10]; first compound 0.05 µM): 0.393 | relative viability ([10]; first compound 0.1581 µM): 0.243 | relative viability ([10]; first compound 0.5 µM): 0.21 | relative viability ([11]; first compound 0.005 µM): 0.823 | relative viability ([11]; first compound 0.01581 µM): 0.518 | relative viability ([11]; first compound 0.05 µM): 0.226 | relative viability ([11]; first compound 0.1581 µM): 0.155 | relative viability ([11]; first compound 0.5 µM): 0.14 | relative viability ([12]; first compound 0.005 µM): 0.867 | relative viability ([12]; first compound 0.01581 µM): 0.893 | relative viability ([12]; first compound 0.05 µM): 0.818 | relative viability ([12]; first compound 0.1581 µM): 0.371 | relative viability ([12]; first compound 0.5 µM): 0.211 | relative viability ([13]; first compound 0.005 µM): 0.666 | relative viability ([13]; first compound 0.01581 µM): 0.631 | relative viability ([13]; first compound 0.05 µM): 0.43 | relative viability ([13]; first compound 0.1581 µM): 0.237 | relative viability ([13]; first compound 0.5 µM): 0.151 | relative viability ([14]; first compound 0.005 µM): 0.542 | relative viability ([14]; first compound 0.01581 µM): 0.49 | relative viability ([14]; first compound 0.05 µM): 0.391 | relative viability ([14]; first compound 0.5 µM): 0.165 | relative viability ([15]; first compound 0.005 µM): 0.886 | relative viability ([15]; first compound 0.01581 µM): 1.12 | relative viability ([15]; first compound 0.05 µM): 0.909 | relative viability ([15]; first compound 0.1581 µM): 0.452 | relative viability ([15]; first compound 0.5 µM): 0.252 | relative viability ([16]; first compound 0.005 µM): 0.442 | relative viability ([16]; first compound 0.01581 µM): 0.761 | relative viability ([16]; first compound 0.05 µM): 0.801 | relative viability ([16]; first compound 0.1581 µM): 0.418 | relative viability ([16]; first compound 0.5 µM): 0.313 | relative viability ([17]; first compound 0.005 µM): 0.573 | relative viability ([17]; first compound 0.01581 µM): 0.516 | relative viability ([17]; first compound 0.05 µM): 0.363 | relative viability ([17]; first compound 0.1581 µM): 0.177 | relative viability ([17]; first compound 0.5 µM): 0.148 | relative viability ([18]; first compound 0.005 µM): 0.832 | relative viability ([18]; first compound 0.01581 µM): 0.821 | relative viability ([18]; first compound 0.05 µM): 0.634 | relative viability ([18]; first compound 0.1581 µM): 0.418 | relative viability ([18]; first compound 0.5 µM): 0.353 | relative viability ([19]; first compound 0.005 µM): 0.697 | relative viability ([19]; first compound 0.01581 µM): 0.448 | relative viability ([19]; first compound 0.05 µM): 0.467 | relative viability ([19]; first compound 0.1581 µM): 0.242 | relative viability ([19]; first compound 0.5 µM): 0.197

Reference: the supplement of paper PMC10307832
